# Source: patent US20030211075A1 (priority 2001, published 2003)
# Substitutions are numbered along the chain they refer to. Names and notes keep the numbering of the source.
# B1: 2C3 anti-VEGF antibody (antibody, V domains shown)
# VH: QVQLQESGPELVKPGASVKMSCKASGYTFTSYVFHWVKQKPGQGLEWIGYINPYNDVTKYNEKFKGKATLTSDKSSSTAYMELSSLTSEDSAVYYCASYYGSSYGYYAMDDWGQGTTVTVSS
# VL: DIQLTQSPASLSVSAGEKVTMSCKSSQSLLNSGNQKNYLAWYQQKPGQPPKLLIHGASTRESGVPDRFTGSGSGTDFTLTISSVQAEDLAVYYCQNDYSYPLTFGAGTKLELKR
# B2: tTF219 (G164A): tTF219 with amino acid 164 (Gly) replaced by Ala (protein)
# chain: GSGTTNTVAAYNLTWKSTNFKTILEWEPKPVNQVYTVQISTKSGDWKSKCFYTTDTECDLTDEIVKDVKQTYLARVFSYPAGNVESTGSAGEPLYENSPEFTPYLETNLGQPTIQSFEQVGTKVNVTVEDERTLVRRNNTFLSLRDVFGKDLIYTLYYWKSSSSAKKTAKTNTNEFLIDVDKGENYCFSVQAVIPSRTVNRKSTDSPVECMGQEKGEFRE
# B3: tTF219 (W158R) (protein)
# chain: B2 chain with W159R, A165G
# B4: Annexin V: protein that binds to PS with high affinity (protein, UniProt P08758 2-320, looked up)
# Annexin A5: AQVLRGTVTDFPGFDERADAETLRKAMKGLGTDEESILTLLTSRSNAQRQEISAAFKTLFGRDLLDDLKSELTGKFEKLIVALMKPSRLYDAYELKHALKGAGTNEKVLTEIIASRTPEELRAIKQVYEEEYGSSLEDDVVGDTSGYYQRMLVVLLQANRDPDAGIDEAQVEQDAQALFQAGELKWGTDEEKFITIFGTRSVSHLRKVFDKYMTISGFQIEETIDRETSGNLEQLLLAVVKSIRSIPAYLAETLYYAMKGAGTDDHTLIRVMVSRSEIDLFNIRKEFRKNFATSLYSMIKGDTSGDYKKALLLLCGEDD
# How the values were obtained:
# [1] = progressive disease before treatment; cited from earlier work
# [2] = tested on: Mouse bEnd.3 endothelial cells; assay: PS translocation and viability of endothelial cells exposed to H2O2; format: cell-based
# Method: Mouse bEnd.3 endothelial cells were seeded at an initial density of 50,000 cells/well. Twenty-fours later cells were incubated with increasing concentrations of H2O2 (from 10 μM to 500 μM) for 1 hour at 37° C, or left untreated. At the end of the incubation, cells were washed 3 times with PBS containing 0.2% gelatin and fixed with 0.25% glutaraldehyde. Identical wells were either stained with anti-PS IgM or trypsinized and evaluated for viability by the Trypan Blue exclusion test. For the anti-PS staining, after blocking with 2% gelatin for 10 min., cells were incubated with 2 μg/ml of anti-PS antibody, followed by detection with anti-mouse IgM-HRP conjugate.
# [3] = tested on: L540 human Hodgkin's disease tumors; assay: L540 tumors, immunoglobulin-tTF conjugate with etoposide; details: mouse, in vivo
# Method: The tumor test systems were: i) L540 human Hodgkin's disease tumors growing in SCID mice; ii) C1300 Muγ (interferon-secreting) neuroblastoma growing in nu/nu mice; iii) H460 human non-small cell lung carcinoma growing in nu/nu mice. To establish solid tumors, 1.5×10^7 tumor cells were injected subcutaneously into the right anterior flank of SCID or BALB/c nu/nu mice (Charles River Labs., Wilmingham, Mass.). When the tumors had grown to various diameters, mice were assigned to different experimental groups, each containing 4 to 9 mice.
# Mice bearing L540 human Hodgkin's disease tumors were treated with a complex of tTF219 and a bispecific antibody together with the anti-cancer drug, etoposide, at a conventional dose.
# [4] = tested on: HT29 human colorectal carcinoma; assay: HT29 xenograft, tumor growth and necrosis after tTF constructs and Factor VIIa; format: in vivo, mouse; details: mouse, in vivo, iv
# [5] = cited from earlier work
# [6] = Toxicity to mice of agents given separately; details: mouse, in vivo
# human endoglin (human) = human endoglin (human) (UniProt P17813); assay: in vivo localization, human/SCID animal with human skin graft containing a tumor, overnight
# Chain of human endoglin (human) (P17813 26-658): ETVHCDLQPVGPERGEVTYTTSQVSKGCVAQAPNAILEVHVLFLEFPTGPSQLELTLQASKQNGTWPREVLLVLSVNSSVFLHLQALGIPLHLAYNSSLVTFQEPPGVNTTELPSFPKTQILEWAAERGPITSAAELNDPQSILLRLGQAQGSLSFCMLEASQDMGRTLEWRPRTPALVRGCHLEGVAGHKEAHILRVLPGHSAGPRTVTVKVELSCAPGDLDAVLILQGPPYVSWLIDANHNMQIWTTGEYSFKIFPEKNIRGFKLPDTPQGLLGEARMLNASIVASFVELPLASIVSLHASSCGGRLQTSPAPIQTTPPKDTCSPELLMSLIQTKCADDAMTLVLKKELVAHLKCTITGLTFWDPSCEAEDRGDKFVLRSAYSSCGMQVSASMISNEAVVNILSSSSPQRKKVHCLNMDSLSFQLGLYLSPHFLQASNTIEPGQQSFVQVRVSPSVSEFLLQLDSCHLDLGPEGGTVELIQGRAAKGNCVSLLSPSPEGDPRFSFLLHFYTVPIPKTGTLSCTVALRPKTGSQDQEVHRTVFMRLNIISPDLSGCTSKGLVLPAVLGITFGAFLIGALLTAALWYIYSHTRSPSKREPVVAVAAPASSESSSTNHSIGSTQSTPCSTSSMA
# HUVEC cells = assay: FACS analysis of tissue factor expression on endothelial cells; format: cell-based, human; details: TNFα 500 U/ml, LPS 10 μg/ml, VEGF 1 nM, 6 h
# Method: To analyze tissue factor expression on the surface of endothelial cells, HUVEC cells were incubated with TNFα (500 U/ml), LPS (10 μg/ml) or vascular endothelial growth factor (VEGF, 1 nM) alone or in combination for 6 h at 37°. Cells were then detached and stained for surface expression of human tissue factor with a sheep-anti-human tissue factor antibody (Haemochrom. Essen. Germany) and an appropriate FITC-conjugated secondary antibody. Fluorescent cells were detected on a flow cytometer (Becton Dickinson, San Jose, Calif.).
# Mouse endothelial cells = assay: Cell based two stage coagulation assay after TNFα
# Method: (§1) Mouse endothelial cells were seeded in 48 well tissue culture plates and allowed to adhere overnight. Cells were stimulated with TNFα at the following concentrations: 500 U/ml; 100 U/ml; 20 U/ml; 4 U/ml; 0.8 U/ml; 0.16 U/ml; and with medium only.
# Endothelial cells were also tested for coagulant activity in a cell based two stage coagulation assay. After incubation with TNFα, cells were washed and incubated with coagulation factor mix (0.5 μg/ml factor VIIa in a mix containing 2.8 μg/ml factor IX, 3.4 μg/ml factor X, 50 μM phospholipids, in calcium buffer). The supernatant of wells was transferred into a 96 well ELISA plate. Substrate S2765 was added and Factor Xa generation measured.
# VCAM-1 = assay: FACS for upregulation of VCAM-1 on endothelial cells; format: cell-based, mouse
# Method: as §1
# Endothelial cells were then investigated for upregulation of the adhesion molecule VCAM-1 by fluorescence activated cell stain (FACS). To this end, cells were stained with an antibody against murine VCAM-1, followed by an appropriate FITC-conjugated secondary antibody. Fluorescent cells were detected on a flow cytometer (Becton Dickinson, San Jose, Calif.).
# [7] = in vivo; cited from earlier work
# [8] = target: T1, recombinant human VEGF (VEGF165) (human, UniProt P15692-4 27-191); assay: competition ELISA, 1 nM VEGF on VEGFR1 (Flt-1/Fc) wells, 100 fold molar excess of 2C3
# T1 construct: Dimeric VEGF seen at about 42 kd on blots; also called huVEGF; free VEGF
# T1 sequence (P15692 other isoform, or with tags, fused parts or gaps limits assumed): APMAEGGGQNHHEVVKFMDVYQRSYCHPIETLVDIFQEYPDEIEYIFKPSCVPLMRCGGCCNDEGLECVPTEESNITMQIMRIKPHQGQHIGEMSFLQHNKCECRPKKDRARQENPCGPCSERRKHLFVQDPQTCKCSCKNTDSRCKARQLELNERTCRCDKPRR
# [9] = target: T1, recombinant human VEGF (VEGF165); assay: competition ELISA, 1 nM VEGF on VEGFR1 (Flt-1/Fc) wells, 1000 fold molar excess of 2C3
# [10] = tested on: L540 Hodgkin-bearing SCID mice; assay: Annexin V inhibition of coaguligand-induced thrombosis in vivo; parameters: species or system mouse
# Method: The ability of Annexin V to inhibit coaguligand-induced thrombosis in vivo was examined in L540 Hodgkin-bearing SCID mice.
# Four hours after the last injection mice were anesthetized and perfused with heparinized saline. Tumors were removed, fixed with 4% formalin, paraffin-embedded and stained with hematoxylene-eosin. The number of thrombosed and non-thrombosed blood vessels were counted and the percentage of thrombosis was calculated.
# [11] = tested on: IL-1α-stimulated bEnd.3 cells; assay: Chromogenic assay of Factor Xa formation induced by cell-bound coaguligand; format: cell-based, mouse; details: 10 μg per ml Annexin V
# Method: The ability of Annexin V to affect Factor Xa formation induced by coaguligand was determined by a chromogenic assay. […] Annexin V was added at concentrations ranging from 0.1 to 10 μg/ml and cells were incubated for 30 min, before addition of diluted Proplex T. The amount of Factor Xa generated in the presence or absence of Annexin V was determined. Each treatment was performed in duplicate and repeated at least twice.
molecule,measurement,setting,value
"NC(=O)c1nnn(Cc2cc(Cl)c(C(=O)c3ccc(Cl)cc3)c(Cl)c2)c1N [CAI, carboxyamidotriazole]","disease stabilization, share of cancer patients",[1],49%
OO [H2O2],cells with PS at the cell surface,[2]; H2O2 as low as 20 μM,about 50%
same,cells with PS translocation,"[2]; H2O2 higher than 100 μM, 1 hour",~90%
same,cell viability,"[2]; low levels of H2O2 (lower than 100 μM), identical to untreated cells",95%
COc1cc([C@@H]2c3cc4c(cc3[C@@H](O[C@@H]3O[C@@H]5CO[C@@H](C)O[C@H]5[C@H](O)[C@H]3O)[C@H]3COC(=O)[C@H]23)OCO4)cc(OC)c1O [etoposide],"average tumor volume, day 14",[3],1400 mm^3
"Factor VIIa: activated coagulation Factor VII, recombinant human",average area of necrosis in tumor sections,[4],some necrosis
same,half-life in vivo,[5],approximately two hours
same,toxicity when given separately,[6],practically non-toxic to mice
TEC-11 anti-human endoglin antibody,% of blood vessels in the tumor periphery to which the antibody localized,human endoglin (human),84%
same,% of blood vessels throughout the tumor to which the antibody localized,human endoglin (human),46%
TNFα,tissue factor expression on the surface of HUVEC,HUVEC cells,upregulated tissue factor expression
same,TNFα at which an increase over negative control was detected in the coagulation assay,Mouse endothelial cells,"0,16 U/ml"
same,"dose for procoagulant effect, fold lower than for VCAM-1 increase",Mouse endothelial cells,125 fold
same,TNFα required for measurable increase of VCAM-1 expression,VCAM-1,20 U/ml
VEGF,tissue factor expression on the surface of HUVEC,HUVEC cells,upregulated tissue factor expression
monophosphoryl lipid A [MPL],dose known to be safe for human use,[7],100 μg/m^2
B1,% of VEGF bound to VEGFR1-coated wells relative to the amount bound without 2C3,[8],92%
same,% of VEGF bound to VEGFR1-coated wells relative to the amount bound without 2C3,[9],105%
B2,average area of necrosis in tumor sections,[4],some necrosis
same,toxicity when given separately,[6],practically non-toxic to mice
B3,toxicity when given separately,[6],practically non-toxic to mice
B4,coaguligand-induced thrombosis and changes in tumor cell morphology after Annexin V pre-treatment,[10]; 100 μg Annexin V 2 hours before 40 μg anti-VCAM-1•tTF,completely abolished
same,tumor morphology,[10]; 100 μg Annexin V alone,did not alter tumor morphology
same,inhibition of factor Xa production,[11],58%
